Measurements from patent publication US20050250726A1, “Immunostimulatory nucleic acid for treatment of non-allergic inflammatory diseases” (University of Iowa Research Foundation, priority 2001, published 2005).
Strand notation (5' to 3'): a small letter for the sugar, then the base; units joined by * are phosphorothioate-linked, units joined directly phosphodiester-linked; [ ] holds rarer units or linkages, { } end groups; capitals alone tell only the bases. d = 2'-deoxy (DNA)

Assays:
[1] = test system: COX-2 mRNA; assay: RNase protection assay for COX-2 mRNA in RAW 264.7 macrophages; assay type: cell-based, murine; details: ODN 3 μg/ml; for increase in COX-2 mRNA: 0-24 h
Procedure: RNase protection assay. A murine COX-2 cDNA fragment (nucleotides 205-505; GenBank accession no. M88242) was synthesized by RT-PCR using mouse brain RNA as a template and cloned into pGEM-4. Fragments of the RPL32-4A gene were also cloned into pGEM-4. Dudov K P et al. (1984) Cell 37:457-68. L32 served as an internal loading control. RNase protection assay (RPA) for the detection of COX-2 was performed as previously described. Stadler A et al. (1998) In: Neurodegeneration Methods and Protocols, Harry J and Tilson H A, eds., Humana Press, Totowa, N.J., p. 53. Briefly, for the synthesis of a ^32P-radiolabeled anti-sense RNA probe, equimolar mixtures of the linearized COX-2 and L32 templates were used. Hybridization reactions were performed overnight at 56° C. Following RNase digestion, the RNA duplexes were isolated by electrophoresis in a standard 7.5% acrylamide/12 M urea/0.5% TBE sequencing gel. Dried gels were placed on BMR filmhand were exposed at −70° C.
Films and photographs of RPA or Western blots were scanned in at 6000 DPI using an Epson Expression 1600 scanner. Densitometric analysis was performed using Vtrace (developed at the University of Iowa Image Analysis Facility) operating on a SGI O2 Workstation. Average and integrated OD measurements were made on user-selected regions. A Kodak photographic step tablet was used to calibrate optical density.
Immunostimulatory ODN induce COX-2 mRNA. RAW 264.7 macrophages were incubated with media or ODN (3 μg/ml) for varying time periods (0, 2, 4, 6 and 24 h) and RNA isolated for COX-2 expression using RPA.

[2] = test system: COX-2 protein; assay: Western blotting of COX-2 protein in RAW 264.7 cells; assay type: cell-based, murine
Procedure: Western blotting. Protein was isolated from cultured cells by resuspending in lysis buffer [50 mM Tris (hydroxymethyl) aminomethane, pH 7.5, 150 mM NaCl, 100 μg/ml PMSF, 1 μg/ml aprotinin, 1 μg/ml leupeptin, 1 mM diethyldithiocarbamic acid, 1% NP-40 and 1% sodium deoxycholate]. Cells were lysed by sonication (20 s, 4° C.). Debris was eliminated by centrifugation (15 min, 1000 g). Protein concentration was measured using a commercial reagent based on BCA staining (Pierce, Rockford, Ill.), using BSA as an internal standard. Equal amounts of cellular protein were loaded onto a 10% polyacrylamide gel and separated by electrophoresis (200 V for 45 min). Proteins were then transferred to nitrocellulose (100 V for 1 h) and the membrane was blocked with 5% non-fat dry milk. The nitrocellulose was then incubated with a rabbit polyclonal primary antibody (anti-COX-2, 1:1000, Cayman; anti-COX-1, 1:1000, Santa Cruz) overnight at 4° C. Antibody labeling was detected using enhanced chemiluminescence (ECL; Amersham) as per the manufacturer's instructions. Specificity of the anti-cyclooxygenase antibody was confirmed with the use of ram seminal vesicle PGHS-1 (COX-1, Oxford Biomedical Research, Oxford, Mich.) and sheep placenta PGHS-2 (COX-2, Cayman).
Films and photographs of RPA or Western blots were scanned in at 6000 DPI using an Epson Expression 1600 scanner. […]

[3] = test system: YAC-1 target cells; assay: NK cytotoxicity assay, 4-h 51Cr-release against YAC-1 target cells; assay type: cell-based, mouse; details: for NK activity, Mouse Spleen Cells (LU/10^6): B cell-depleted C57BL/6 spleen cells, 18 h, IL-2 100 U/mL, ODN 1585 5 μg/mL, SC-58236 0.25 μg/mL, PGE2 0.1 μg/mL, 1 LU = 30% 51Cr release; for effect on NK lytic activity induced by CpG DNA: B cell-depleted murine spleen cells stimulated with ODN 1585
Procedure: Cytotoxicity assay. Spleen cells from C57BL/6 mice were depleted of B cells using paramagnetic beads coated with goat anti-mouse Ig as previously described. Ballas Z K et al. (1990) J Immunol 145:1039-45; Ballas Z K et al. (1993) J Immunol 150:17-30. […] […] Cultures were harvested at 18 h and the cells were used as effectors in a standard 4-h ^51Cr-release assay against YAC-1 target cells labeled with Na^51CrO4 (Amersham Life Science, Arlington Heights, Ill.) as described previously. Ballas Z K et al. (1990) J Immunol 145:1039-45; Ballas Z K et al. (1993) J Immunol 150:17-30; Ballas Z K et al. (1990) J Allergy Clin Immunol 85:453-39. One lytic unit (LU) was defined as the number of the cells needed to exert 30% specific lysis.
It has previously been reported that certain CpG DNA sequences can elicit strong lytic activity in NK cells (Ballas Z K et al. (1996) J Immunol 157:1840-45), whereas exogenous PGE2 is known to inhibit the activity of NK cell killing (Kanar M C et al. (1988) J Clin Immunol 8:69-79; Young M R et al. (1986) J Natl Cancer Inst 77:425-29). B cell-depleted murine spleen cells were stimulated with the stimulatory ODN 1585 in the presence or absence of a COX inhibitor.

[4] = test system: BALB/c mice; assay: Serum IFN-γ in vivo after COX inhibitor and ODN 1826 injection; parameters: species or system mouse; details: SC-58236 20 mg/kg i.p. 1 h before 30 μg ODN 1826, serum 5 h post ODN, FIG. 3
Procedure: In vivo experiments. BALB/c mice were injected i.p. with 0.2 ml of diluent or SC-58236 (20 mg/kg). One hour later, mice were injected with 30 μg of ODN 1826 or PBS. Five hours later, the mice were anaesthetized with Avertin (Aldrich, Milwaukee, Wis.) and blood was obtained from the retro-orbital plexus. The blood was allowed to clot on ice for 1 h and centrifuged at 10,000 r.p.m. for 10 min. The serum was used for IFN-γ determination by ELISA (as described above).
COX inhibitors augment IFN-γ production in vivo. To determine whether COX inhibitors could also enhance the immune stimulatory effects of CpG-DNA in vivo, mice were treated with COX inhibitors (piroxicam or SC-58236) and subsequently injected with stimulatory ODN 1826. Serum IFN-γ levels were quantified 5 h post ODN injection.

[5] = test system: BALB/c mouse spleen cells; assay: IFN-γ secretion from CpG DNA-stimulated spleen cells (ELISA); assay type: cell-based; details: for IFN-γ: BALB/c spleen cells preincubated 30 min with SC-58236 0.125 μM, PGE2 0.1 μM, 2B5 or control antibody 6.7 μg/mL, then CpG ODN 1826 0.3 μg/mL for 24 h, supernatant ELISA
Procedure: Cell culture conditions. RAW 264.7 cells and murine spleen cells were cultured in RPMI 1640 supplemented with 10% FCS, 2 mM L-glutamine, 0.05 mM 2-mercaptoethanol, penicillin (100 U/ml) and streptomycin (100 U/ml) in 12-well tissue culture plates (Costar, Corning, N.Y.). Cells were incubated in media alone or media supplemented with ODN. Supernatants from triplicate cultures were harvested and stored at −70° C. before analysis for PG or cytokine concentration. Cells were subsequently harvested for either RNA or protein isolation. In some cultures, ODN-stimulated spleen cells were incubated in the presence of PGE2 (0.1 μM), piroxicam (16 μM), SC-58236 (0.125 μM), anti-PGE2 antibody 2B5 (6.7 μg/ml), or isotype antibody MOPC21 (6.7 μg/ml). For quantitative analysis of macrophage PG production, RAW 264.4 cells were cultured at 1×10^5 cells/ml in media or media with ODN (3 μg/ml). After 24 h of culture the supernatant was removed and cells were incubated in PBS supplemented with arachidonic acid (10 μM).
Cytokine quantification. IFN-γ detection was performed using a cytokine ELISA kit from PharMingen (San Diego, Calif.). Immulon-1B microtiter plates were obtained from Dynatech (Chantilly, Calif.). After incubation with peroxidase substrate (tetramethylbenzidine) the plates were read at 650 nm on a microplate reader (Cambridge Technology, Watertown, Mass.).
COX inhibitors enhance IFN-γ secretion induced by CpG DNA. CpG DNA is known to elicit strong Th1-like immune responses both in vitro and in vivo. Klinman D M et al. (1996) Proc Natl Acad Sci USA 93:2879-83. In contrast, PGE2, which is induced by CpG DNA, can inhibit Th1 responses. Betz M et al. (1991) J Immunol 146:108-13. Murine spleen cells were stimulated with CpG DNA in the presence of piroxicam, a non-selective COX inhibitor, or SC-58236, a selective inhibitor of COX-2, and quantified IFN-γ production. […] Neither COX inhibitor alone stimulated IFN-γ secretion.
Inhibition of PGE2 synthesis plays an important role in enhancing IFN-γ secretion. The blockade of the COX enzyme will inhibit synthesis of multiple PG (e.g., PGE2, PGD2 and dPGJ2), all of which potentially can inhibit Th1 immune responses. To assess the role of PGE2 in the modulation of IFN-γ secretion elicited by CpG ODN, a neutralizing antibody (2B5) specific for PGE2 was added into CpG DNA-stimulated spleen cell-cultures. […] The enhancement was similar in magnitude to that observed when COX inhibitors were added to the cultures (Table 3).

Compound	increase in COX-2 mRNA [1]	COX-2 protein induction [2]	NK activity, Mouse Spleen Cells (LU/10^6) [3] [LU/10^6]	effect on NK lytic activity induced by CpG DNA [3]	IFN-γ [5] [pg/mL]	other results
ODN 1982: non-stimulatory control ODN (dT*dC*dC*dA*dG*dG*dA*dC*dT*dT*dC*dT*dC*dT*dC*dA*dG*dG*dT*dT)	no significant increase	no induction	–	–	–	–
ggGGTCAACGTTGAgggggG (dG*dG*dGdGdTdCdAdAdCdGdTdTdGdAdG*dG*dG*dG*dG*dG) [ODN 1585, immunostimulatory CpG ODN]	–	–	7.3	–	–	–
NS(=O)(=O)c1ccc(-n2nc(C(F)(F)F)cc2-c2ccc(Cl)cc2)cc1 [SC-58236]	–	–	0.0	enhanced the NK activity	0 ± 2	increase in serum IFN-γ above mice injected with ODN 1826 alone [4]: 4.6 fold; enhancement of IFN-γ secretion from CpG DNA-stimulated spleen cells ([5]; inhibitor added to CpG DNA-stimulated murine spleen cells): 2 fold
ODN 1826	effectively increased COX-2 mRNA	marked induction	–	–	1960 ± 247	COX-2 mRNA levels over the 24-h time period [1]: remained elevated; time to induction of COX-2 mRNA expression [1]: ≤ 2 h; COX-2 mRNA, 6 h level fold greater than 0 h ([1]; 6 h): 21 fold
CCCCC[C@H](O)/C=C/[C@H]1[C@H](O)CC(=O)[C@@H]1C/C=C\CCCC(=O)O [PGE2, prostaglandin E2]	–	–	0.0	abolished the lytic activity	0 ± 4	–
